# Results from PubChem BioAssay (NCI).
#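 48-hour exposure; five concentrations; linearly interpolated endpoints. The concentration for 50% growth inhibition is given as GI50. TGI is the concentration that stops growth completely.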
# How the values were obtained:
# Experiment in all cases: DTP human tumour cell line panel, 48 h
# HCT-116 colon = tested on: HCT-116 colon
# IGROV1 ovarian = tested on: IGROV1 ovarian
# KM12 colon = tested on: KM12 colon
# MOLT-4 leukemia = tested on: MOLT-4 leukemia
# NCI-H522 lung = tested on: NCI-H522 lung
# OVCAR-4 ovarian = tested on: OVCAR-4 ovarian
# SF-539 CNS = tested on: SF-539 CNS
# SK-MEL-28 melanoma = tested on: SK-MEL-28 melanoma
# SW-620 colon = tested on: SW-620 colon
# UO-31 renal = tested on: UO-31 renal
SMILES,GI50 (HCT-116 colon),TGI (HCT-116 colon),GI50 (IGROV1 ovarian),TGI (IGROV1 ovarian),GI50 (KM12 colon),TGI (KM12 colon),GI50 (MOLT-4 leukemia),TGI (MOLT-4 leukemia),GI50 (NCI-H522 lung),TGI (NCI-H522 lung),GI50 (OVCAR-4 ovarian),TGI (OVCAR-4 ovarian),GI50 (SF-539 CNS),TGI (SF-539 CNS),GI50 (SK-MEL-28 melanoma),TGI (SK-MEL-28 melanoma),GI50 (SW-620 colon),TGI (SW-620 colon),GI50 (UO-31 renal),TGI (UO-31 renal)
COc1ccc(N2Cc3cnc(Nc4ccccc4)nc3N([C@@H]3CC[C@@H](O)C3)C2=O)cc1,2.84 µM,> 25 µM,2.46 µM,> 18.5 µM,3.54 µM,> 25 µM,2.61 µM,> 17.8 µM,2.93 µM,> 18.8 µM,2.43 µM,> 25 µM,0.652 µM,5.41 µM,8.19 µM,> 25 µM,3.81 µM,> 18.2 µM,0.869 µM,> 16.5 µM
O=c1[nH]c(=O)n([C@@H]2C[C@H](CO)[C@H](O)C2)cc1/C=C/Br,,> 100 µM,,> 100 µM,,> 100 µM,,> 100 µM,,> 100 µM,,> 100 µM,,> 100 µM,,> 100 µM,,> 100 µM,,> 100 µM
CC(=O)NNc1nc(C)c(C(=O)NNC(=O)C(=O)Nc2c(C)cccc2C)s1,,> 100 µM,,> 100 µM,,> 100 µM,,80.1 µM,,32.8 µM,,> 100 µM,,> 100 µM,,> 100 µM,,> 100 µM,,> 100 µM
COc1ccccc1N=C(N)N/N=C/c1c[nH]c2ccccc12,,19.6 µM,,28.9 µM,,29.6 µM,,23.4 µM,,19.8 µM,,31.3 µM,,26.4 µM,,16.3 µM,,10.4 µM,,27.1 µM
CCOC(=O)C1=C(C(=O)c2ccc(C)cc2)C(c2cccc([N+](=O)[O-])c2)C(C(=O)c2ccc(C)cc2)=C(C(=O)OCC)N1,,19.6 µM,,35.3 µM,,25.4 µM,,> 100 µM,,36.2 µM,,84.6 µM,,26.7 µM,,34.2 µM,,27.1 µM,,29.5 µM
CC(C)=CCC/C(C)=C/CC/C(C)=C/Cc1c(O)c2ccccc2oc1=O,,> 100 µM,,> 100 µM,,> 100 µM,,> 100 µM,,> 100 µM,,> 100 µM,,> 100 µM,,> 100 µM,,> 100 µM,,> 100 µM
COc1cc2c(c(OC)c1OC)-c1ccc(N)c(=O)cc1[C@@H](NC(C)=O)CC2,0.0168 µM,> 100 µM,0.0359 µM,,< 0.01 µM,0.186 µM,0.0395 µM,> 100 µM,< 0.0114 µM,< 0.021 µM,0.0542 µM,> 100 µM,0.0289 µM,> 100 µM,> 100 µM,> 100 µM,< 0.01 µM,> 100 µM,0.705 µM,> 100 µM
Cc1ccc(-c2cc(-c3ccco3)c(C#N)c(=O)[nH]2)cc1,,> 100 µM,,> 100 µM,,> 100 µM,,> 100 µM,,> 100 µM,,> 100 µM,,> 100 µM,,> 100 µM,,> 100 µM,,> 100 µM
CN1CCN(c2ccc(NC(=O)c3nc4ccc5[nH]ncc5c4c4c3CCCC4)cc2C(F)(F)F)CC1,0.814 µM,1.5 µM,0.821 µM,1.73 µM,1.47 µM,5.27 µM,1.09 µM,3.08 µM,0.856 µM,1.88 µM,1.45 µM,6.81 µM,0.851 µM,1.61 µM,0.941 µM,1.71 µM,0.947 µM,2.2 µM,0.843 µM,1.65 µM
COc1ccc(-c2cc(=O)c3c(C)cc(C)nc3[nH]2)cc1,36.5 µM,> 100 µM,,84.8 µM,,> 100 µM,,42.9 µM,,> 100 µM,,> 100 µM,,> 100 µM,,> 100 µM,,> 100 µM,,> 100 µM
COc1ccc(Nc2ncc(Br)c(NCCCNC(=O)C3CCC3)n2)cc1,8.31 µM,82.3 µM,14.6 µM,44.5 µM,8.06 µM,> 100 µM,5.92 µM,> 100 µM,24 µM,> 100 µM,11.3 µM,56 µM,3.69 µM,18.5 µM,33.4 µM,> 100 µM,6.6 µM,> 100 µM,2.55 µM,13.5 µM
Cc1ccc(/C(=N\N=C(N)N)c2ccccc2)cc1,0.342 µM,11.3 µM,0.459 µM,31.4 µM,0.367 µM,5.05 µM,0.796 µM,> 92.3 µM,0.372 µM,13.3 µM,0.791 µM,18.6 µM,0.265 µM,0.925 µM,0.535 µM,15.4 µM,0.418 µM,19.1 µM,1.12 µM,17.1 µM
C=C1SC(=Nc2c(C)cc(C)cc2C)N(C(=O)c2sc3ccccc3c2Cl)C12CCCCC2,> 100 µM,> 100 µM,> 100 µM,> 100 µM,54.6 µM,> 100 µM,26.3 µM,> 100 µM,28.6 µM,> 100 µM,> 100 µM,> 100 µM,> 100 µM,> 100 µM,> 100 µM,> 100 µM,31.1 µM,> 100 µM,63.8 µM,> 100 µM
O=C(O)C1C2CCC(O2)C1C(=O)N1CCCCC1 (stereo not given),,22.6 µM,,74.6 µM,,37.2 µM,,20.6 µM,,17.4 µM,,24.4 µM,,23.5 µM,,19.5 µM,,15 µM,,46 µM
CCCCC1CC(c2cccc([N+](=O)[O-])c2)=NO1 (stereo not given),,> 100 µM,,> 100 µM,,> 100 µM,,> 100 µM,,> 100 µM,,> 100 µM,,> 100 µM,,> 100 µM,,> 100 µM,,> 100 µM
C[C@H](NC(=O)[C@@H]1CSSC[C@@H](NC(=O)c2nc3ccccc3cc2O)C(=O)NCC(=O)N1C)c1ccccc1,1.63 µM,5.15 µM,2.59 µM,12.4 µM,0.629 µM,8.56 µM,0.894 µM,3.27 µM,3.13 µM,10.2 µM,7.95 µM,18.3 µM,1.63 µM,9.13 µM,0.906 µM,9.83 µM,1.85 µM,6.26 µM,5.76 µM,13.3 µM
